Like-named read-outs stand apart in the source and are kept apart here.

Results on 14 compounds are retold here after patent publication US12643912B2, “Macrocyclic compounds, a process for their preparation and pharmaceutical compositions containing them” (LES LABORATOIRES SERVIER, priority 2020, dated 2026).

For assay [1], the system named is Nrf2 (Keap1-NRF2 nuclear translocation). Briefly: U2OS translocation assay (PathHunter U2OS Keap1-NRF2 Nuclear Translocation Cell Line). It counts as cell-based. In outline: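 PathHunter U2OS line expressing Nrf2-enzyme-donor fusion and nuclear acceptor enzyme, 7 500 cells/well in Opti-MEM, 1% FBS. Compounds incubated 3 h at 37° C. Luminescence after 60 min with detection reagent, normalized between 1% DMSO and 10 μM andrographolide.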

For the next assay, the target named is T1, Keap1 (A321-C624) (h) (Homo sapiens, UniProt Q14145).
T1 construct: His-Thromb-KEAP1(A321-C624) acquired from Novalix (batch PU-P01) was immobilized covalently by amine coupling; His tag (N); thrombin cleavage site (Thromb) (N); purchased Novalix batch PU-P01
T1 sequence (Q14145 321-624): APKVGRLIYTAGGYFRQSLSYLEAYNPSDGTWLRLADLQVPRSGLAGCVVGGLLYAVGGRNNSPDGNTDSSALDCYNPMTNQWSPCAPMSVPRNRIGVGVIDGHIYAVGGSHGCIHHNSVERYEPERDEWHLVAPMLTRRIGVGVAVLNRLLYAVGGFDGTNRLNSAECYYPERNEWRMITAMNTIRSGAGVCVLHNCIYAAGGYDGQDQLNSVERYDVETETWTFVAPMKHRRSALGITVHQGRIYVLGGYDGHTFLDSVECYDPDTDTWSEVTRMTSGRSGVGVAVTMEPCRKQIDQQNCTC
The experiment in a line: Surface Plasmon Resonance binding assay to Kelch domain of KEAP1. The following applies: Biacore T200, 25° C., immobilized His-Thromb-KEAP1(A321-C624), single cycle kinetics, KD=kd/ka from 1:1 fit; read-out: Keap1 (A321-C624) (h) direct/SPR (KD). As for the experimental part:
EXAMPLE 85: SURFACE PLASMON RESONANCE
Binding assay to Kelch domain of KEAP1 was performed by Surface Plasmon Resonance (SPR) on a Biacore T200 (GE Healthcare) at 25° C. using CM5 chip. His-Thromb-KEAP1(A321-C624) acquired from Novalix (batch PU-P01) was immobilized covalently by amine coupling using standard wizard protocol, at a concentration of 20 μg/mL in sodium acetate pH 5.5. The ligand was captured until 1250 RU was reached. Amine blank is used as the reference flow cell. Binding of analyte to the ligand was monitored in real time with associations of 180 seconds and a dissociation of 720 seconds. Association (ka) and dissociation (kd) rates were fitted with a simple 1:1 kinetic interaction model using Biacore T200 Evaluation Software (GE Healthcare). The equilibrium constant (KD=kd/ka) was calculated from these fitted parameters. […] The Biacore binding assay was performed with a flowrate of 50 μL/min using a running buffer of 10 mM HEPES (pH 7.4), 150 mM NaCl, 3 mM EDTA, 1 mM TCEP, 0.05% P20,5% DMSO. Double subtraction was used by subtracting both reference flow cell and previous blank cycle (with running buffer). Solvent correction was applied to correct DMSO bulk effect.
Background: SPR reads the build-up and loss of mass on a sensor chip optically.

[2] abbreviates: Homo sapiens, U2OS, 3 h, read-out: CELLULAR U2OS EC50 (nM), U2OS Keap1-NRF2 nuclear translocation cells, 3 h incubation, luminescence, normalized between 1% DMSO and 10 μM andrographolide.
Where [3] appears, read: read-out: CELLULAR U2OS EC50, U2OS Keap1-NRF2 nuclear translocation cells, 3 h incubation, luminescence, normalized between 1% DMSO and 10 μM andrographolide.

Broadly, the EC50 is the concentration at which the effect is half-maximal. With `Cc1ccc2cc1CN1Cc3cc(ccc3OS1(=O)=O)OCCCn1nnc3c(C)c(ccc31)C2CC(=O)O` (racemic) [Example 2, [4,30-Dimethyl-26,26-dioxo-20,25-dioxa-26λ^6-thia-1,14,15,16-tetraazahexacyclo[19.5.3.1^3,70.1^9,130.0^12,160.0^24,28]hentriaconta-3(31),4,6,9(30),10,12,14,21,23,28-decaen-8-yl]acetic acid], the EC50 in assay [1] (setting [2]) turned out to be 830 nM. In addition, the Kd on Keap1 (A321-C624) (h) was determined as 35.2 nM.
Take `Cc1ccc2cc1CN1Cc3cc(ccc3OS1(=O)=O)OCCCCCn1nnc3c(C)c(ccc31)C2CC(=O)O` (single isomer, unassigned) [Example 1a, [4,32-dimethyl-28,28-dioxo-22,27-dioxa-28λ^6-thia-1,14,15,16-tetraazahexacyclo[21.5.3.1^3,70.1^9,130.0^12,160.0^26,30]tritriaconta-3(33),4,6,9(32),10,12,14,23,25,30-decaen-8-yl]acetic acid]: the 50% effective concentration (EC50) in assay [1] (setting [3]) is 10.1 nM. For the same compound, the Kd on Keap1 (A321-C624) (h) amounted to 0.181 nM.
In the same order, the values of `Cc1ccc2cc1CN1Cc3cc(ccc3OS1(=O)=O)OCCCCCn1nnc3c(C)c(ccc31)C2CC(=O)O` (single isomer, unassigned) [Example 1b, [4,32-dimethyl-28,28-dioxo-22,27-dioxa-28λ^6-thia-1,14,15,16-tetraazahexacyclo[21.5.3.1^3,70.1^9,130.0^12,160.0^26,30]tritriaconta-3(33),4,6,9(32),10,12,14,23,25,30-decaen-8-yl]acetic acid] are 735 nM and 3.97 nM.
Consider `COc1cc2cc(c1)C(CC(=O)O)c1ccc3c(nnn3CCCCOc3ccc4c(c3)CN(C2)S(=O)(=O)O4)c1C` (single isomer, unassigned) [Example 8a, [5-Methoxy-31-methyl-27,27-dioxo-21,26-dioxa-27λ^6-thia-1,14,15,16-tetraazahexacyclo[20.5.3.1^3,70.1^9,130.0^12,160.0^25,29]dotriaconta-3(32),4,6,9(31),10,12,14,22,24,29-decaen-8-yl]acetic acid], for which the EC50 in assay [1] (setting [2]) was determined as 986 nM. Moreover, the Kd at Keap1 (A321-C624) (h) amounted to 62.2 nM.
In the case of `COc1cc2cc(c1)C(CC(=O)O)c1ccc3c(nnn3CCCCOc3ccc4c(c3)CN(C2)S(=O)(=O)O4)c1C` (single isomer, unassigned) [Example 8b, [5-Methoxy-31-methyl-27,27-dioxo-21,26-dioxa-27λ^6-thia-1,14,15,16-tetraazahexacyclo[20.5.3.1^3,70.1^9,130.0^12,160.0^25,29]dotriaconta-3(32),4,6,9(31),10,12,14,22,24,29-decaen-8-yl]acetic acid], the concentration for a half-maximal effect (EC50) in assay [1] (setting [3]) was 516 nM. For the same compound, the Kd at Keap1 (A321-C624) (h) was found to be 12.4 nM.
Taken in the same sequence, the figures for `Cc1c2ccc3c1nnn3CCCCOc1ccc3c(c1)CN(Cc1cc(ccc1Cl)C2CC(=O)O)S(=O)(=O)O3` (single isomer, unassigned) [Example 9a, [4-Chloro-31-methyl-27,27-dioxo-21,26-dioxa-27λ^6-thia-1,14,15,16-tetraazahexacyclo[20.5.3.1^3,70.1^9,130.0^12,160.0^25,29]dotriaconta-3(32),4,6,9(31),10,12,14,22,24,29-decaen-8-yl]acetic acid] were 48.2 nM and 2.12 nM.
As to `Cc1c2ccc3c1nnn3CCCCOc1ccc3c(c1)CN(Cc1cc(ccc1Cl)C2CC(=O)O)S(=O)(=O)O3` (single isomer, unassigned) [Example 9b, [4-Chloro-31-methyl-27,27-dioxo-21,26-dioxa-27λ^6-thia-1,14,15,16-tetraazahexacyclo[20.5.3.1^3,70.1^9,130.0^12,160.0^25,29]dotriaconta-3(32),4,6,9(31),10,12,14,22,24,29-decaen-8-yl]acetic acid], in assay [1] (setting [3]), the EC50 amounted to 845 nM. Moreover, on Keap1 (A321-C624) (h), the Kd was found to be 9.99 nM.
As to `COc1ccc2cc1CN1Cc3cc(ccc3OS1(=O)=O)OCCCCn1nnc3c(C)c(ccc31)C2CC(=O)O` (single isomer, unassigned) [Example 10a, [4-Methoxy-31-methyl-27,27-dioxo-21,26-dioxa-27λ^6-thia-1,14,15,16-tetraazahexacyclo[20.5.3.1^3,70.1^9,130.0^12,160.0^25,29]dotriaconta-3(32),4,6,9(31),10,12,14,22,24,29-decaen-8-yl]acetic acid], the EC50 in assay [1] (setting [3]) was 58.1 nM. Also, the Kd on Keap1 (A321-C624) (h) came out at 3.54 nM.
`COc1ccc2cc1CN1Cc3cc(ccc3OS1(=O)=O)OCCCCn1nnc3c(C)c(ccc31)C2CC(=O)O` (single isomer, unassigned) [Example 10b, [4-Methoxy-31-methyl-27,27-dioxo-21,26-dioxa-27λ^6-thia-1,14,15,16-tetraazahexacyclo[20.5.3.1^3,70.1^9,130.0^12,160.0^25,29]dotriaconta-3(32),4,6,9(31),10,12,14,22,24,29-decaen-8-yl]acetic acid]: the EC50 in assay [1] (setting [3]) was found to be 369 nM. Further, the Kd at Keap1 (A321-C624) (h) was determined as 15.1 nM.
In the same order, the values of `Cc1ccc2cc1CN1Cc3cc(ccc3OS1(=O)=O)OCCCCCCn1nnc3c(C)c(ccc31)C2CC(=O)O` (single isomer, unassigned) [Example 11a, [4,33-Dimethyl-29,29-dioxo-23,28-dioxa-29λ^6-thia-1,14,15,16-tetraazahexacyclo[22.5.3.1^3,70.1^9,130.0^12,160.0^27,31]tetratriaconta-3(34),4,6,9(33),10,12,14,24,26,31-decaen-8-yl]acetic acid] are 109 nM and 2.42 nM.
Taken in the same sequence, the figures for `Cc1ccc2cc1CN1Cc3cc(ccc3OS1(=O)=O)OCCCCCCn1nnc3c(C)c(ccc31)C2CC(=O)O` (single isomer, unassigned) [Example 11b, [4,33-Dimethyl-29,29-dioxo-23,28-dioxa-29λ^6-thia-1,14,15,16-tetraazahexacyclo[22.5.3.1^3,70.1^9,130.0^12,160.0^27,31]tetratriaconta-3(34),4,6,9(33),10,12,14,24,26,31-decaen-8-yl]acetic acid] were 13.1 nM and 0.778 nM.
Take `Cc1c2ccc3c1nnn3CCCCOc1ccc3c(c1)CN(Cc1cc(cc(C(F)(F)F)c1)C2CC(=O)O)S(=O)(=O)O3` (single isomer, unassigned) [Example 12a, [31-Methyl-27,27-dioxo-5-(trifluoromethyl)-21,26-dioxa-27λ^6-thia-1,14,15,16-tetraazahexacyclo[20.5.3.1^3,70.1^9,130.0^12,160.0^25,29]dotriaconta-3(32),4,6,9(31),10,12,14,22,24,29-decaen-8-yl]acetic acid]: the EC50 in assay [1] (setting [2]) was found to be 3160 nM. The Kd on Keap1 (A321-C624) (h) is 3070 nM.
On to `Cc1ccc2cc1CN1Cc3cc(ccc3OS1(=O)=O)OCCCCn1nnc3c(C)c(ccc31)[C@H]2CC(=O)Nc1cccnc1` [Example 80a, 2-[(8S)-4,31-Dimethyl-27,27-dioxo-21,26-dioxa-27λ^6-thia-1,14,15,16-tetraazahexacyclo[20.5.3.1^3,70.1^9,130.0^12,160.0^25,29]dotriaconta-3(32),4,6,9(31),10,12,14,22,24,29-decaen-8-yl]-N-(pyridin-3-yl)acetamide], for which, in assay [1] (setting [2]), the half-maximal effective concentration (EC50) is 596 nM.
Same read-out and setting: to `Cc1ccc2cc1CN1Cc3cc(ccc3OS1(=O)=O)OCCCCn1nnc3c(C)c(ccc31)[C@@H]2CC(=O)Nc1cccnc1` [Example 80b, 2-[(8R)-4,31-dimethyl-27,27-dioxo-21,26-dioxa-27λ^6-thia-1,14,15,16-tetraazahexacyclo[20.5.3.1^3,70.1^9,130.0^12,160.0^25,29]dotriaconta-3(32),4,6,9(31),10,12,14,22,24,29-decaen-8-yl]-N-(pyridin-3-yl)acetamide] belongs 2700 nM.
